Experimental data: ChEMBL document CHEMBL2176953, “Synthesis and evaluation of α-thymidine analogues as novel antimalarials” (J Med Chem, 2012)

Key:
[1] = Plasma protein binding in CD1 mouse after 5 hrs
[2] = tested on: Plasmodium falciparum; assay: Antimalarial activity against erythrocytic stages of Plasmodium falciparum 3D7 infected in human O positive RBC after 48 hrs by SYBR-green assay; type: functional, organism-based; conditions: 3D7, 48 h
[3] = tested on: MRC5; assay: Cytotoxicity against human MRC5 cells; type: cell-based
[4] = target: T1, Thymidylate kinase (Plasmodium falciparum (isolate 3D7), UniProt Q8I4S1); assay: Inhibition of recombinant Plasmodium falciparum TMPK using TMP as substrate by pyruvate kinase and lactate dehydrogenase enzyme coupled assay
T1 sequence (Q8I4S1 whole entry): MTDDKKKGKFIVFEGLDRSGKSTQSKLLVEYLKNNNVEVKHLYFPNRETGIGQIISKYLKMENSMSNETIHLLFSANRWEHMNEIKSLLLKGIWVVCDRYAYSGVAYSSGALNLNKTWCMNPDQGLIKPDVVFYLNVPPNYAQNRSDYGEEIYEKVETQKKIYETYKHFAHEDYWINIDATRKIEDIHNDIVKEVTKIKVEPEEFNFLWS

SMILES	fraction unbound at 5 h [1]	EC50 [2] [µM]	CC50 [3] [µM]	Ki [4] [µM]
Cc1cn([C@@H]2C[C@H](O)[C@@H](CNC(=S)Nc3ccc(Cl)c(C(F)(F)F)c3)O2)c(=O)[nH]c1=O	–	2.3	> 50	31
Cc1cn([C@@H]2C[C@H](O)[C@@H](CNC(=O)Nc3ccc(Cl)c(C(F)(F)F)c3)O2)c(=O)[nH]c1=O	–	9	> 50	88
Cc1cn([C@@H]2C[C@H](O)[C@@H](CNC(=O)Nc3cccc(Cl)c3)O2)c(=O)[nH]c1=O	–	4.8	> 50	106
Cc1cn([C@@H]2C[C@H](O)[C@@H](CNC(=O)Nc3ccc(Cl)cc3)O2)c(=O)[nH]c1=O	–	2.6	> 50	114
Cc1cn([C@@H]2C[C@H](O)[C@@H](CNC(=O)Nc3ccc(C(C)(C)C)cc3)O2)c(=O)[nH]c1=O	–	2.9	> 50	167

The next lines start with results.

fraction unbound at 5 h [1]	SMILES	EC50 [2] [µM]	CC50 [3] [µM]	Ki [4] [µM]
0.08	Cc1cn([C@@H]2C[C@H](O)[C@@H](CNC(=O)Nc3ccc(-c4ccccc4)cc3)O2)c(=O)[nH]c1=O	0.29	–	–
0.059	Cc1cn([C@@H]2C[C@H](O)[C@@H](CNC(=O)Nc3ccc(OCc4ccccc4Cl)cc3)O2)c(=O)[nH]c1=O	0.028	29	–
0.188	Cc1cn([C@@H]2C[C@H](O)[C@@H](CNC(=O)Nc3ccc(OCc4ccccc4)cc3)O2)c(=O)[nH]c1=O	0.24	–	–
0.477	Cc1cn([C@@H]2C[C@H](O)[C@@H](CNC(=O)Nc3ccc(N4CCCCC4)cc3)O2)c(=O)[nH]c1=O	0.34	–	–
0.095	Cc1cn([C@@H]2C[C@H](O)[C@@H](CNC(=O)Nc3ccc(Oc4ccccc4)cc3)O2)c(=O)[nH]c1=O	0.24	44	–
